{"source": "patent US20080268535A1", "about": "“Method for Inducing the Differentiation of Human Myelogenous Leukemia Cells Into Megakarocytes or Thrombocytes” (EWHA University - Industry Collaboration Foundation, priority 2005, published 2008)", "format_in_all_cases": "cell-based, human", "key": {"K562 cells [1]": {"system": "K562 cells", "test": "Differentiation inductivity, lineage receptor expression by FACS, K562 cells", "settings": "K562 cells, 40 μg/ml (R)-NALPCE or 30 nM PMA, 4 days", "method": "K562 cells were aliquoted at a density of 2×10^5 per well in 6-well plates and treated with 40 μg/ml of (R)-NALPCE or 30 nM of PMA (12-phorbol myristate-13-acetate, Calbiochem.), followed by incubation for 4 days. After centrifugation (1,000 rpm, 10 min), the cell pellets thus obtained were washed three times with 0.01% bovine serum albumin (BSA) in PBS. The cells were incubated with 10 μl of anti-CD41-fluorescein-5-isothiocyanate (FITC) (Dako Chemicals, Carpenteria, Calif.), 20 μl of anti-CD16-Cy-Chrome (Cy) (BD Pharmingen), 10 μl of anti-glycophorin ACD235a-phycoerythrin (PE) (Dako Chemicals, Carpenteria, Calif.), and 20 μl of anti-CD14-allophycocyanin (APC) (BD Pharmingen) in 200 μl of 0.01% bovine serum albumin (BSA)-PBS at 4° C. for 50 min while spinning to realize homogeneous fluorescent staining. After centrifugation (1,000 rpm, 10 min), the cell pellets thus obtained were washed three times with 0.01% bovine serum albumin (BSA) in PBS. Fluorescence was analyzed on a fluorescence-activated cell sorter (FACS) (Aria) using a Cellquest program."}, "HEL cells": {"system": "HEL cells", "test": "Growth curve of HEL cells (trypan blue viable cell count)", "settings": "5 μg/ml, counted every day for 5 days", "method": "(§1) To examine the effect of the compound (R)-NALPCE on cell growth, the HEL cells was monitored for growth curve in the presence thereof. The cells were aliquoted at a density of 3×10^5 cells per well in 6-well plates and treated with 5 μg/ml of (R)-NALPCE. After staining with trypan blue, viable cells were counted every day for 5 days."}, "K562 cells [2]": {"system": "K562 cells", "test": "Binding of FITC-fibrinogen to glycoprotein IIb/IIIa complexes of differentiated K562 cells (FACS)", "settings": "K562 cells on OP9 cells, 40 μg/ml, 5 days, activated with 100 nM PMA", "from_the_text": "Bone marrow progenitor cells, such as K562 cells, have glycoprotein IIb/IIIa complexes expressed thereon at a low level, but the number of complexes increases as the cells increase in size according to differentiation into megakaryocytes. By taking advantage of the fact that fibrinogens, which play a key role in blood clotting, bind to activated glycoprotein IIb/IIIa (GP IIb/IIIa) complex, the differentiation of K562 cells into megakaryocytes by (R)-NALPCE was investigated.\nA process similar to that of Experimental Example 8 was conducted. OP9 cells were aliquoted at a density of 1×10^5 cells in 6-well plates and incubated for 24 hrs. After the OP9 cells were uniformly attached onto the bottom of the plates, K562 cells were layered at a density of 1×10^5 cells over the OP9 cells in 6-well plates. The cells were treated with 40 μg/ml of (R)-NALPCE before incubation in a day-dependent manner for 5 days. The (R)-NALPCE-treated K562 cells were transferred to 60 mm-dishes everyday and treated with 100 nM of PMA for 30 min to activate glycoprotein IIb/IIIa complexes. The cells thus differentiated were collected and suspended in 50 μl of PBS. […] Following the addition of […] of PBS, the amount of fibrinogen bound to the surface of the activated K562 cells was quantitatively determined as fluorescence was analyzed on a fluorescence-activated cell sorter (FACS) (Aria) using a Cellquest program."}, "K562 cells [3]": {"system": "K562 cells", "test": "Differentiation of K562 cells layered on OP9 cells, CD41/CD61 by FACS", "method": "OP9 cells were aliquoted at a density of 1×10^5 cells per well in 6-well plates and incubated for 24 hrs. After OP9 cells were uniformly attached onto the bottom of the plates, K562 cells were layered at a density of 1×10^5 cells per well over the OP cells in the 6-well plates. Treatment with 40 μg/ml of (R)-NALPCE was conducted before incubation in a day-dependent manner for 4 days. Following centrifugation (1,000 rpm, 5 min), the cell pellets thus obtained were rinsed three times with 0.01% bovine serum albumin (BSA) in PBS. Incubation with 10 μl of anti-CD41-fluorescein-5-isothiocyanate (FITC) (Dako Chemicals, Carpenteria, Calif.) and 20 μl of anti-CD61-phycoerythrin (PE) (BD Pharmingen) in 200 μl of 0.01% bovine serum albumin (BSA)-PBS was conducted at 4° C. for 50 min so as to achieve homogeneous fluorescent staining. After centrifugation (1,000 rpm, 10 min), the fluorescent-stained cell pellets thus obtained were washed three times with 0.01% bovine serum albumin (BSA) in PBS. Fluorescence was analyzed on a fluorescence-activated cell sorter (FACS) (Aria) using a Cellquest program."}, "K562 cells [4]": {"system": "K562 cells", "test": "Growth curve of K562 cells (trypan blue viable cell count)", "settings": "40 μg/ml, counted every day for 5 days", "method": "as §1, with “K562” for “the HEL”, “growth” for “growth curve”, “1×10^5” for “3×10^5”, “40 μg/ml.” for “5 μg/ml of (R)-NALPCE.”"}, "K562 cells [5]": {"system": "K562 cells", "test": "Transmission electron microscopy of cells differentiated from K562 cells on OP9 cells", "settings": "40 μg/ml, 5 days", "method": "OP9 cells were aliquoted at a density of 1×10^5 cells in 6-well plates and incubated for 24 hrs. After the OP9 cells were uniformly attached onto the bottom of the plates, K562 cells were layered at a density of 1×10^5 cells over the OP9 cells in 6-well plates. The cells were treated with 40 μg/ml of (R)-NALPCE before incubation for 5 days. Following centrifugation (1,000 rpm, 5 min), the cells were pre-fixed with 2.5% glutaraldehyde in PBS (pH 7.4) for 24 hrs. Thereafter, cell pellets obtained by centrifugation (4,000 rpm, 10 min) were fixed for 1 hr with 1% osmium tetraoxide in 0.1 M PBS (pH 7.4). After being washed with PBS, the post-fixed samples were dehydrated with 60, 70, 80, 90, and 95% ethanol for 10 min each and then twice with 100% ethanol for 10 min each, and embedded in epoxy resin. The embedded samples were sectioned into slices 1 μm thick using an ultramicrotome diamond knife (Richert-Jung, U.S.A.) and stained with 1% toluidine blue for optical microscopy. Separately, ultra-thin sections ranging in thickness from 60 to 70 nm were prepared and stained sequentially with 1-2% uranyl acetate and 1% lead citrate for transmission electron microscopy, in which electrons were accelerated at 75 kV using H-600 TEM (Hitachi, Japan)."}}, "note": "Entries after “also recorded” stand apart in the source; their conditions may differ.", "data": [{"smiles": "CCCCCCCCCCCCCCCCCC(=O)NC(COP(=O)([O-])OCC[N+](C)(C)C)C(=O)OC", "note": "[(R)-NALPCE, N-steroyl-O-phosphocholine-D-serine methyl ester]", "values": [{"measurement": "expression of CD41, CD16, glycophorin A and CD14 receptors", "setting": "K562 cells [1]", "result": "CD41 and CD16 were specifically expressed"}, {"measurement": "cell growth curve (viable cells)", "setting": "HEL cells", "result": "relatively low cell growth curve"}, {"measurement": "fluorescence of fibrinogens bound to glycoprotein IIb/IIIa complexes", "setting": "K562 cells [2]", "result": "increase in a day-dependent manner"}, {"measurement": "increase in the count of CD41-positive cells, with OP9 cells versus alone", "setting": "K562 cells [3]; K562 cells on OP9 cells, 40 μg/ml, 4 days", "result": 15, "unit": "%"}, {"measurement": "differentiation inductivity compared with PMA", "setting": "K562 cells [3]; in combination with OP9 cells", "result": "comparable with the differentiation inductivity of PMA; also recorded: as good as that of PMA"}, {"measurement": "cell growth curve (viable cells)", "setting": "K562 cells [4]", "result": "relatively low cell growth curve"}, {"measurement": "maturity of megakaryocytes (TEM)", "setting": "K562 cells [5]", "result": "have demarcation channels within which platelets are held"}, {"measurement": "morphology of released platelets (TEM)", "setting": "K562 cells [5]", "result": "morphology similar to that of the pre-existing blood platelets"}, {"measurement": "polymorphonuclear megakaryocytes having at least two nuclei among the differentiated cells", "setting": "K562 cells [5]; TEM", "result": "≥ 40", "unit": "%"}]}]}
